Results: patent publication US20230014151A1, “COMBINATION ANTIVIRAL THERAPY FOR MEASLES” (The Trustees of Columbia University in the City of New York, priority 2019, published 2023)
Where two headings read alike, the source gives them in different places. Square brackets hold non-standard residues; d marks the D form. Peptide text beside a SMILES is read from it. * marks the point of attachment. X4 = CC(C)CCC[C@@H](C)[C@H]1CC[C@H]2[C@@H]3CC=C4C[C@@H](OC(=O)CCOCCOCCOCCOCCNC(=O)C*)CC[C@]4(C)[C@H]3CC[C@]12C; X3 = CC(C)CCC[C@@H](C)[C@H]1CC[C@H]2[C@@H]3CC=C4C[C@@H](OC(=O)C*)CC[C@]4(C)[C@H]3CC[C@]12C; Cbz = O=C(OCc1ccccc1)*

Assays:
[1] = biological target: viral glycoproteins (H and F); Nectin-4 (Measles virus, UniProt Q786F3); experiment: beta-galactosidase complementation-based fusion assay, Nectin-4 target cells
[2] = biological target: measles virus (MeV) fusion protein F, wild type, expressed on cells (measles virus) (UniProt Q786F3); experiment: cell-based or functional assay
[3] = Nectin4 IC50, Table 3 (extended version)
[4] = IC50, Table 2 (salient peptides), Nectin-4 target cells

| Compound | IC50 [1, 3] | IC90 ([1]; read-out: Nectin4 IC90) | IC90 [1] | IC50, beta-galactosidase complementation-based fusion assay, Nectin-4 target cells [2] | IC90, beta-galactosidase complementation-based fusion assay, Nectin-4 target cells [2] | further results |
| --- | --- | --- | --- | --- | --- | --- |
| CC[C@H](C)[C@H](NC(=O)[C@H](C)NC(=O)[C@H](CC(N)=O)NC(=O)CNC(=O)[C@H](CC(C)C)NC(=O)[C@H](CC(N)=O)NC(=O)[C@@H](NC(=O)CNC(=O)[C@@H](NC(=O)[C@H](CC(=O)O)NC(=O)[C@H](CC(C)C)NC(=O)[C@H](CCCNC(=N)N)NC(=O)[C@H](CCC(=O)O)NC(=O)[C@H](CC(C)C)NC(=O)[C@H](CO)NC(=O)[C@@H](NC(=O)[C@@H]1CCCN1C(=O)[C@@H]1CCCN1C(=O)CNC(=O)[C@H](CO)NC(=O)CNC(=O)[C@H](CO)NC(=O)CNC(=O)CNC(=O)[C@H](Cc1ccccc1)NC(=O)[C@@H](Cc1ccccc1)NC(=O)OCc1ccccc1)[C@@H](C)CC)C(C)C)[C@@H](C)O)C(=O)N[C@@H](C)C(=O)N[C@@H](CCCCN)C(=O)N[C@@H](CC(C)C)C(=O)N[C@@H](CCC(=O)O)C(=O)N[C@@H](CC(=O)O)C(=O)N[C@@H](C)C(=O)N[C@@H](CCCCN)C(=O)N[C@@H](CCC(=O)O)C(=O)N[C@@H](CC(C)C)C(=O)N[C@@H](CC(C)C)C(=O)N[C@@H](CCC(=O)O)C(=O)N[C@@H](CO)C(=O)N[C@@H](CO)C(=O)N[C@@H](CC(=O)O)C(=O)N[C@@H](CCC(N)=O)C(=O)N[C@H](C(=O)N[C@@H](CC(C)C)C(=O)N[C@@H](CCCNC(=N)N)C(=O)N[C@@H](CS)C(=O)O)[C@@H](C)CC [FIP-HRC450-485 (no GSGSG)] | 2.77 ± 1.64 µM | 6.37 ± 4.18 µM |  |  |  |  |
| CC[C@H](C)[C@H](NC(=O)[C@H](C)NC(=O)[C@H](CC(N)=O)NC(=O)CNC(=O)[C@H](CC(C)C)NC(=O)[C@H](CC(N)=O)NC(=O)[C@@H](NC(=O)CNC(=O)[C@@H](NC(=O)[C@H](CC(=O)O)NC(=O)[C@H](CC(C)C)NC(=O)[C@H](CCCNC(=N)N)NC(=O)[C@H](CCC(=O)O)NC(=O)[C@H](CC(C)C)NC(=O)[C@H](CO)NC(=O)[C@@H](NC(=O)[C@@H]1CCCN1C(=O)[C@@H]1CCCN1C(=O)CNC(=O)[C@H](CO)NC(=O)CNC(=O)[C@H](CO)NC(=O)CNC(=O)CNC(=O)[C@H](Cc1ccccc1)NC(=O)[C@@H](Cc1ccccc1)NC(=O)OCc1ccccc1)[C@@H](C)CC)C(C)C)[C@@H](C)O)C(=O)N[C@@H](C)C(=O)N[C@@H](CCCCN)C(=O)N[C@@H](CC(C)C)C(=O)N[C@@H](CCC(=O)O)C(=O)N[C@@H](CC(=O)O)C(=O)N[C@@H](C)C(=O)N[C@@H](CCCCN)C(=O)N[C@@H](CCC(=O)O)C(=O)N[C@@H](CC(C)C)C(=O)N[C@@H](CC(C)C)C(=O)N[C@@H](CCC(=O)O)C(=O)N[C@@H](CO)C(=O)N[C@@H](CO)C(=O)N[C@@H](CC(=O)O)C(=O)N[C@@H](CCC(N)=O)C(=O)N[C@H](C(=O)N[C@@H](CC(C)C)C(=O)N[C@@H](CCCNC(=N)N)C(=O)NCC(=O)N[C@@H](CO)C(=O)NCC(=O)N[C@@H](CO)C(=O)NCC(=O)N[C@@H](CS)C(=O)O)[C@@H](C)CC [FIP-HRC450-485] | 4.24 ± 0.812 µM | > 10 µM | > 10 µM |  |  | IC50 [1, 4]: 4.24 ± 0.812 µM |
| CC(C)CCC[C@@H](C)[C@H]1CC[C@H]2[C@@H]3CC=C4C[C@@H](OC(=O)CSC[C@H](NC(=O)CNC(=O)[C@H](CO)NC(=O)CNC(=O)[C@H](CO)NC(=O)CNC(=O)CNC(=O)[C@H](Cc5ccccc5)NC(=O)[C@@H](Cc5ccccc5)NC(=O)OCc5ccccc5)C(=O)O)CC[C@]4(C)[C@H]3CC[C@]12C [FIP-chol] (Cbz-[dF]FGGSGSGC(X3)-OH) | > 10 µM | > 10 µM | 7.615 ± 0.013 µM |  |  | IC50 [1, 4]: 4 ± 1.08 µM |
| CC(C)CCC[C@@H](C)[C@H]1CC[C@H]2[C@@H]3CC=C4C[C@@H](OC(=O)CCOCCOCCOCCOCCNC(=O)CSC[C@H](NC(=O)CNC(=O)[C@H](CO)NC(=O)CNC(=O)[C@H](CO)NC(=O)CNC(=O)CNC(=O)[C@H](Cc5ccccc5)NC(=O)[C@@H](Cc5ccccc5)NC(=O)OCc5ccccc5)C(=O)O)CC[C@]4(C)[C@H]3CC[C@]12C [FIP-peg4-chol] (Cbz-[dF]FGGSGSGC(X4)-OH) |  | 7.615 ± 0.013 µM | 7.615 ± 0.013 µM |  |  |  |
| CC[C@H](C)[C@H](NC(=O)[C@H](C)NC(=O)[C@H](CC(N)=O)NC(=O)CNC(=O)[C@H](CC(C)C)NC(=O)[C@H](CC(N)=O)NC(=O)[C@@H](NC(=O)CNC(=O)[C@@H](NC(=O)[C@H](CC(=O)O)NC(=O)[C@H](CC(C)C)NC(=O)[C@H](CCCNC(=N)N)NC(=O)[C@H](CCC(=O)O)NC(=O)[C@H](CC(C)C)NC(=O)[C@H](CO)NC(=O)[C@@H](NC(=O)[C@@H]1CCCN1C(=O)[C@@H]1CCCN1C(C)=O)[C@@H](C)CC)C(C)C)[C@@H](C)O)C(=O)N[C@@H](C)C(=O)N[C@@H](CCCCN)C(=O)N[C@@H](CC(C)C)C(=O)N[C@@H](CCC(=O)O)C(=O)N[C@@H](CC(=O)O)C(=O)N[C@@H](C)C(=O)N[C@@H](CCCCN)C(=O)N[C@@H](CCC(=O)O)C(=O)N[C@@H](CC(C)C)C(=O)N[C@@H](CC(C)C)C(=O)N[C@@H](CCC(=O)O)C(=O)N[C@@H](CO)C(=O)N[C@@H](CO)C(=O)N[C@@H](CC(=O)O)C(=O)N[C@@H](CCC(N)=O)C(=O)N[C@H](C(=O)N[C@@H](CC(C)C)C(=O)N[C@@H](CCCNC(=N)N)C(=O)NCC(=O)N[C@@H](CO)C(=O)NCC(=O)N[C@@H](CO)C(=O)NCC(=O)N[C@@H](CSCC(=O)NCCOCCOCCOCCOCCC(=O)O[C@H]1CC[C@@]2(C)C(=CC[C@H]3[C@@H]4CC[C@H]([C@H](C)CCCC(C)C)[C@@]4(C)CC[C@@H]32)C1)C(=O)O)[C@@H](C)CC [HRC450-485-peg4-chol] |  | 0.856 ± 0.0786 µM | 0.856 ± 0.0786 µM |  |  |  |
| CC[C@H](C)[C@H](NC(=O)[C@H](C)NC(=O)[C@H](CC(N)=O)NC(=O)CNC(=O)[C@H](CC(C)C)NC(=O)[C@H](CC(N)=O)NC(=O)[C@@H](NC(=O)CNC(=O)[C@@H](NC(=O)[C@H](CC(=O)O)NC(=O)[C@H](CC(C)C)NC(=O)[C@H](CCCNC(=N)N)NC(=O)[C@H](CCC(=O)O)NC(=O)[C@H](CC(C)C)NC(=O)[C@H](CO)NC(=O)[C@@H](NC(=O)[C@@H]1CCCN1C(=O)[C@@H]1CCCN1C(C)=O)[C@@H](C)CC)C(C)C)[C@@H](C)O)C(=O)N[C@@H](C)C(=O)N[C@@H](CCCCN)C(=O)N[C@@H](CC(C)C)C(=O)N[C@@H](CCC(=O)O)C(=O)N[C@@H](CC(=O)O)C(=O)N[C@@H](C)C(=O)N[C@@H](CCCCN)C(=O)N[C@@H](CCC(=O)O)C(=O)N[C@@H](CC(C)C)C(=O)N[C@@H](CC(C)C)C(=O)N[C@@H](CCC(=O)O)C(=O)N[C@@H](CO)C(=O)N[C@@H](CO)C(=O)N[C@@H](CC(=O)O)C(=O)N[C@@H](CCC(N)=O)C(=O)N[C@H](C(=O)N[C@@H](CC(C)C)C(=O)N[C@@H](CCCNC(=N)N)C(=O)NCC(=O)N[C@@H](CO)C(=O)NCC(=O)N[C@@H](CO)C(=O)NCC(=O)N[C@@H](CS)C(=O)O)[C@@H](C)CC [HRC450-485] | > 10 µM | > 10 µM | > 10 µM |  |  | IC50 [1, 4]: > 10 µM |
| CC[C@H](C)[C@H](NC(=O)[C@H](C)NC(=O)[C@H](CC(N)=O)NC(=O)CNC(=O)[C@H](CC(C)C)NC(=O)[C@H](CC(N)=O)NC(=O)[C@@H](NC(=O)CNC(=O)[C@@H](NC(=O)[C@H](CC(=O)O)NC(=O)[C@H](CC(C)C)NC(=O)[C@H](CCCNC(=N)N)NC(=O)[C@H](CCC(=O)O)NC(=O)[C@H](CC(C)C)NC(=O)[C@H](CO)NC(=O)[C@@H](NC(=O)[C@@H]1CCCN1C(=O)[C@@H]1CCCN1C(C)=O)[C@@H](C)CC)C(C)C)[C@@H](C)O)C(=O)N[C@@H](C)C(=O)N[C@@H](CCCCN)C(=O)N[C@@H](CC(C)C)C(=O)N[C@@H](CCC(=O)O)C(=O)N[C@@H](CC(=O)O)C(=O)N[C@@H](C)C(=O)N[C@@H](CCCCN)C(=O)N[C@@H](CCC(=O)O)C(=O)N[C@@H](CC(C)C)C(=O)N[C@@H](CC(C)C)C(=O)N[C@@H](CCC(=O)O)C(=O)N[C@@H](CO)C(=O)N[C@@H](CO)C(=O)N[C@@H](CC(=O)O)C(=O)N[C@@H](CCC(N)=O)C(=O)N[C@H](C(=O)N[C@@H](CC(C)C)C(=O)N[C@@H](CCCNC(=N)N)C(=O)NCC(=O)N[C@@H](CO)C(=O)NCC(=O)N[C@@H](CO)C(=O)NCC(=O)N[C@@H](CSC1CC(=O)N(CCC(=O)NCCOCCOCCOCCOCCOCCOCCOCCOCCOCCOCCOCCNC(=O)CCN2C(=O)CC(SC[C@H](NC(=O)CNC(=O)[C@H](CO)NC(=O)CNC(=O)[C@H](CO)NC(=O)CNC(=O)[C@H](CCCNC(=N)N)NC(=O)[C@H](CC(C)C)NC(=O)[C@@H](NC(=O)[C@H](CCC(N)=O)NC(=O)[C@H](CC(=O)O)NC(=O)[C@H](CO)NC(=O)[C@H](CO)NC(=O)[C@H](CCC(=O)O)NC(=O)[C@H](CC(C)C)NC(=O)[C@H](CC(C)C)NC(=O)[C@H](CCC(=O)O)NC(=O)[C@H](CCCCN)NC(=O)[C@H](C)NC(=O)[C@H](CC(=O)O)NC(=O)[C@H](CCC(=O)O)NC(=O)[C@H](CC(C)C)NC(=O)[C@H](CCCCN)NC(=O)[C@H](C)NC(=O)[C@@H](NC(=O)[C@H](C)NC(=O)[C@H](CC(N)=O)NC(=O)CNC(=O)[C@H](CC(C)C)NC(=O)[C@H](CC(N)=O)NC(=O)[C@@H](NC(=O)CNC(=O)[C@@H](NC(=O)[C@H](CC(=O)O)NC(=O)[C@H](CC(C)C)NC(=O)[C@H](CCCNC(=N)N)NC(=O)[C@H](CCC(=O)O)NC(=O)[C@H](CC(C)C)NC(=O)[C@H](CO)NC(=O)[C@@H](NC(=O)[C@@H]3CCCN3C(=O)[C@@H]3CCCN3C(C)=O)[C@@H](C)CC)C(C)C)[C@@H](C)O)[C@@H](C)CC)[C@@H](C)CC)C(=O)O)C2=O)C1=O)C(=O)O)[C@@H](C)CC (stereo partly shown) [[HRC450-485]2-peg11] |  | > 10 µM | > 10 µM |  |  | IC50 [1]: > 4 µM; IC50 ([1]; read-out: Nectin4 IC50, Table 3 (extended version)): > 4 µM |
| FIP (no GSGSG), Monomer N-Maleimide (peptide) |  |  |  | > 1 µM | > 1 µM |  |
| FIP (peptide) |  |  |  | 9.72 µM | > 10 µM |  |
| FIP-HRC450-485 (no GSGSG) (peptide) |  |  |  | 2.77 µM | 6.37 µM |  |
| FIP-HRC450-485 (no GSGSG), Monomer N-Maleimide (peptide) |  |  |  | > 0.7 µM | > 10 µM |  |
| FIP-HRC450-485, Monomer N-Maleimide (peptide) |  |  |  | > 1 µM | > 1 µM |  |
| FIP-HRC450-485-chol (no GSGSG) (peptide) |  |  |  | 0.0859 µM | 0.54 µM |  |
